In ChEMBL document CHEMBL3596129, “Osthol and curcumin as inhibitors of human Pgp and multidrug efflux pumps of Staphylococcus aureus: reversing the resistance against frontline antibacterial drugs” (Medchemcomm, 2014):

Key:
P-gp [1] = test: Substrate activity at P-gp in human Caco2 cells assessed as apparent permeability across basolateral to apical side at 10 uM after 90 mins by HPLC with mass spectrometric method; format: ADME, cell-based; settings: Caco-2
[2] = biological target: T1, ATP-dependent translocase ABCB1 (Homo sapiens, UniProt P08183); test: Inhibition of P-gp in human LS180 cells at 50 uM after 90 mins by rhodamine123 cell exclusion method; format: cell-based; settings: ls180, 1.5 h
Staphylococcus aureus [3] = test: Inhibition of MsrA overexpressed in Staphylococcus aureus K2191 assessed as erythromycin MIC at 25 uM after 24 hrs by broth checkerboard method (reference value: 64 ug/ml)
CYP2D6 = CYP2D6 (Homo sapiens, UniProt P10635); test: Inhibition of human CYP2D6 at 10 uM preincubated for 10 mins with cofactor followed by mixture of enzyme-substrate addition by fluorescence assay relative to control; format: ADME
Sequence of CYP2D6 (P10635 whole entry): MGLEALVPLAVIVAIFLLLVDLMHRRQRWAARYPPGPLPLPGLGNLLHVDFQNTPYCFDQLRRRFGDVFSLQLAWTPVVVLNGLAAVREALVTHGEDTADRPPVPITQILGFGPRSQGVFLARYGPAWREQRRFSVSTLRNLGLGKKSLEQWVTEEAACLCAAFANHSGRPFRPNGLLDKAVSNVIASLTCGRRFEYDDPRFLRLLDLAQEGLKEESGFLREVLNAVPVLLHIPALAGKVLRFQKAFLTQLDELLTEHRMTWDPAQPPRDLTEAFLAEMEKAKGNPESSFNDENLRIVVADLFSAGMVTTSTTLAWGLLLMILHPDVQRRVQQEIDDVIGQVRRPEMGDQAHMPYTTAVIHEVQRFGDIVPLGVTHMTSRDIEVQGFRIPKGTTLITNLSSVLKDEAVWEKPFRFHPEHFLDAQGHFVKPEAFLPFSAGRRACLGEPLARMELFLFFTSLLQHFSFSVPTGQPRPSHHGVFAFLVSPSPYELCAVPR

[4] = biological target: T2, Quinolone resistance protein NorA (Staphylococcus aureus) (UniProt P0A0J7); test: Inhibition of NorA overexpressed in Staphylococcus aureus SA1199B assessed as ciprofloxacin MIC at 25 uM after 24 hrs by broth checkerboard method (reference value: 8 ug/ml)
T2 sequence (whole entry): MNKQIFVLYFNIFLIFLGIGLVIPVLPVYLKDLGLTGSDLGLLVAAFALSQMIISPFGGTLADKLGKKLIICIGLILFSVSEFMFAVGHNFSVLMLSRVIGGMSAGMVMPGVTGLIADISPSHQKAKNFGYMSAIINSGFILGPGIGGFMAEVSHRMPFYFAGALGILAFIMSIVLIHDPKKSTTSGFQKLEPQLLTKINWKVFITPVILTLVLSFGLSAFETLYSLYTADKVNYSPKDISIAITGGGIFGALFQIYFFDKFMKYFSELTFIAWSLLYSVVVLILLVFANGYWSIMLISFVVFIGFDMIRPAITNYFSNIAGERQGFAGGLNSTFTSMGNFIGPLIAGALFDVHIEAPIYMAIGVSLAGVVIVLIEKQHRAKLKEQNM

[5] = biological target: T3, Fluoroquinolone resistance protein (Staphylococcus aureus) (UniProt A0A0C5K5S3); test: Inhibition of MdeA overexpressed in Staphylococcus aureus Mupr-1 assessed as decrease in mupirocin MIC at 25 uM after 24 hrs by broth checkerboard method relative to control
T3 sequence (whole entry): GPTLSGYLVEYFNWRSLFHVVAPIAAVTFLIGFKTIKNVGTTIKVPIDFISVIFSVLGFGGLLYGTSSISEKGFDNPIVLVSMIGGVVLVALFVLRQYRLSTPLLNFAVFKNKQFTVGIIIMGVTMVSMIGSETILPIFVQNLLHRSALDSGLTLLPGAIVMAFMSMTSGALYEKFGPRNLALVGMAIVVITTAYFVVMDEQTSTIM

CYP3A4 = CYP3A4 (Homo sapiens, UniProt P08684); test: Inhibition of human CYP3A4 at 10 uM preincubated for 10 mins with cofactor followed by mixture of enzyme-substrate addition by fluorescence assay relative to control; format: ADME
Sequence of CYP3A4 (P08684 whole entry): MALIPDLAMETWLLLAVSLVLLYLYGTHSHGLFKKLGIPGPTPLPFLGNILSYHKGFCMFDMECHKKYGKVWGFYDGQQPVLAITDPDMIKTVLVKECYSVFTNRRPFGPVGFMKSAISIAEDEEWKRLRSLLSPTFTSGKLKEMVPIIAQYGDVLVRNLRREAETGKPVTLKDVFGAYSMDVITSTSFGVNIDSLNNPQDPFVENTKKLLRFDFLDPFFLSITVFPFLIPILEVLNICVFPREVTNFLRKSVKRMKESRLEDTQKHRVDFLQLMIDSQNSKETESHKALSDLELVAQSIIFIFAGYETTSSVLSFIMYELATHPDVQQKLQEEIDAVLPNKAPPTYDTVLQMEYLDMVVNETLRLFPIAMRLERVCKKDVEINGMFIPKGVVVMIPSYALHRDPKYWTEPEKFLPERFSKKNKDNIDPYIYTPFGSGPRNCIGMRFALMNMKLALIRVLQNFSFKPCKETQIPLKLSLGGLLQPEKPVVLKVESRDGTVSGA

Staphylococcus aureus [6] = test: Inhibition of TetK overexpressed in Staphylococcus aureus K2192 assessed as decrease in tetracycline MIC at 25 uM after 24 hrs by broth checkerboard method relative to control
CYP2C9 = CYP2C9 (Homo sapiens, UniProt P11712); test: Inhibition of human CYP2C9 at 10 uM preincubated for 10 mins with cofactor followed by mixture of enzyme-substrate addition by fluorescence assay relative to control; format: ADME
Sequence of CYP2C9 (P11712 whole entry): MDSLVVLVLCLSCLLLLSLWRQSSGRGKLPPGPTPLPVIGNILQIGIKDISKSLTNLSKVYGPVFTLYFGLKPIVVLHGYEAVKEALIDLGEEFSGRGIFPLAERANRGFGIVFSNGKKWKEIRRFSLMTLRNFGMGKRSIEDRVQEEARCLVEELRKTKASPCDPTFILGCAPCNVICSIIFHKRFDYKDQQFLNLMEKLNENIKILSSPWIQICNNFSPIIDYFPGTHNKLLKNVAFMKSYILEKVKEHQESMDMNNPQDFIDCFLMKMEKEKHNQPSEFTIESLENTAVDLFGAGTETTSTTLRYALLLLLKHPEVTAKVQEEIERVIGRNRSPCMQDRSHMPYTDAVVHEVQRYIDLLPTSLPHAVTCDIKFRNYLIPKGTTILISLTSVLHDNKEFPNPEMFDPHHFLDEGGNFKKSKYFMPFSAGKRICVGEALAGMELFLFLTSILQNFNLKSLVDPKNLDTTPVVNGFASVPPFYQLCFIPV

P-gp [7] = test: Substrate activity at P-gp in human Caco2 cells assessed as apparent permeability across apical to basolateral side at 10 uM after 90 mins by HPLC with mass spectrometric method; format: ADME, cell-based; settings: Caco-2
Staphylococcus aureus [8] = test: Inhibition of MsrA overexpressed in Staphylococcus aureus K2191 assessed as decrease in erythromycin MIC at 25 uM after 24 hrs by broth checkerboard method relative to control
CYP2C19 = CYP2C19 (Homo sapiens, UniProt P33261); test: Inhibition of human CYP2C19 at 10 uM preincubated for 10 mins with cofactor followed by mixture of enzyme-substrate addition by fluorescence assay relative to control; format: ADME
Sequence of CYP2C19 (P33261 whole entry): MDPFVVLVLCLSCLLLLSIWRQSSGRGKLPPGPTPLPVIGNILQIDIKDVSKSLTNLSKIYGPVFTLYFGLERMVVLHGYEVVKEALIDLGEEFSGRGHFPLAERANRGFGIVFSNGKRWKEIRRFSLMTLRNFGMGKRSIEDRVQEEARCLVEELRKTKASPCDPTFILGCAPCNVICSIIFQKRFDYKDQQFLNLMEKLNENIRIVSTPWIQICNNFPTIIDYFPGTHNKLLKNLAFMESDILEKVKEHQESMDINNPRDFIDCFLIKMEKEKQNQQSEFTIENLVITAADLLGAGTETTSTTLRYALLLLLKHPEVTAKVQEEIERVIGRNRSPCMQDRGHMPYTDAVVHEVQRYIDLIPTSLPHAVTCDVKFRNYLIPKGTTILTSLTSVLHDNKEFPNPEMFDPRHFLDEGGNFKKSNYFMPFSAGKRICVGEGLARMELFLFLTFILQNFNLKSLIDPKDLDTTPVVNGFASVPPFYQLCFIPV

Staphylococcus aureus [9] = test: Inhibition of TetK overexpressed in Staphylococcus aureus K2192 assessed as tetracycline MIC at 25 uM after 24 hrs by broth checkerboard method (reference value: 32 ug/ml)
[10] = biological target: T1, ATP-dependent translocase ABCB1; test: Inhibition of P-gp in human LS180 cells after 90 mins by rhodamine123 cell exclusion method; format: cell-based
[11] = biological target: T2, Quinolone resistance protein NorA (Staphylococcus aureus); test: Inhibition of NorA overexpressed in Staphylococcus aureus SA1199B assessed as decrease in ciprofloxacin MIC at 25 uM after 24 hrs by broth checkerboard method relative to control
[12] = biological target: T3, Fluoroquinolone resistance protein (Staphylococcus aureus); test: Inhibition of MdeA overexpressed in Staphylococcus aureus Mupr-1 assessed as mupirocin MIC at 25 uM after 24 hrs by broth checkerboard method (reference value: 256 ug/ml)
P-gp [13] = test: Substrate activity at P-gp in human Caco2 cells assessed as efflux ratio of apparent permeability across basolateral to apical side over apical to basolateral side at 10 uM after 90 mins by HPLC with mass spectrometric method; format: ADME, cell-based; settings: Caco-2
[14] = biological target: T3, Fluoroquinolone resistance protein (Staphylococcus aureus); test: Inhibition of MdeA overexpressed in Staphylococcus aureus Mupr-1 assessed as decrease in mupirocin MIC at 3.12 uM after 24 hrs by broth checkerboard method relative to control
Staphylococcus aureus [15] = test: Inhibition of MsrA overexpressed in Staphylococcus aureus K2191 assessed as decrease in erythromycin MIC at 3.12 uM after 24 hrs by broth checkerboard method relative to control
[16] = biological target: T3, Fluoroquinolone resistance protein (Staphylococcus aureus); test: Inhibition of MdeA overexpressed in Staphylococcus aureus Mupr-1 assessed as mupirocin MIC at 3.12 uM after 24 hrs by broth checkerboard method (reference value: 256 ug/ml)
Staphylococcus aureus [17] = test: Inhibition of TetK overexpressed in Staphylococcus aureus K2192 assessed as tetracycline MIC at 3.12 uM after 24 hrs by broth checkerboard method (reference value: 32 ug/ml)
[18] = biological target: T2, Quinolone resistance protein NorA (Staphylococcus aureus); test: Inhibition of NorA overexpressed in Staphylococcus aureus SA1199B assessed as ciprofloxacin MIC at 3.12 uM after 24 hrs by broth checkerboard method (reference value: 8 ug/ml)
Staphylococcus aureus [19] = test: Inhibition of TetK overexpressed in Staphylococcus aureus K2192 assessed as decrease in tetracycline MIC at 3.12 uM after 24 hrs by broth checkerboard method relative to control
Staphylococcus aureus [20] = test: Inhibition of MsrA overexpressed in Staphylococcus aureus K2191 assessed as erythromycin MIC at 3.12 uM after 24 hrs by broth checkerboard method (reference value: 64 ug/ml)
[21] = biological target: T2, Quinolone resistance protein NorA (Staphylococcus aureus); test: Inhibition of NorA overexpressed in Staphylococcus aureus SA1199B assessed as decrease in ciprofloxacin MIC at 3.12 uM after 24 hrs by broth checkerboard method relative to control

COc1ccc2ccc(=O)oc2c1CC=C(C)C [OSTHOLE]
Papp B→A at 1.5 h, 10 µM (P-gp [1]): 35 ×10⁻⁶ cm/s | inhibition (INH) [2]: Not Active | MIC (Staphylococcus aureus [3]): 64 µg/mL | inhibition at 10 µM (CYP2D6): 60.5% | MIC [4]: 2 µg/mL | fold change (FC) [5]: 0 | inhibition at 10 µM (CYP3A4): 27.3% | fold change (FC) (Staphylococcus aureus [6]): 2 | inhibition at 10 µM (CYP2C9): 39.8% | Papp A→B at 1.5 h, 10 µM (P-gp [7]): 26 ×10⁻⁶ cm/s | fold change (FC) (Staphylococcus aureus [8]): 0 | inhibition at 10 µM (CYP2C19): 56.5% | MIC (Staphylococcus aureus [9]): 16 µg/mL | IC50 [10]: 34 µM | fold change (FC) [11]: 4 | MIC [12]: 256 µg/mL | efflux ratio at 1.5 h, 10 µM (P-gp [13]): 1.3

CC(=O)c1c(O)c(C)c(O)c(Cc2c3c(c(O)c4c2OC(c2ccccc2)CC4=O)C=CC(C)(C)O3)c1O (stereo unspecified)
fold change (FC) [14]: 0 | inhibition (INH) [2]: Not Active | fold change (FC) (Staphylococcus aureus [15]): 0 | MIC [16]: 256 µg/mL | MIC (Staphylococcus aureus [17]): 32 µg/mL | MIC [18]: 2 µg/mL | fold change (FC) (Staphylococcus aureus [19]): 0 | MIC (Staphylococcus aureus [20]): 64 µg/mL | fold change (FC) [21]: 4
